Experimental data reported in US7951928B2, “Gene encoding a protein and preventive/remedy for neurodegenerative diseases such as polyglutamine diseases by utilizing the same” (Tokyo Medical and Dental University, priority 2004, dated 2011).

Key:
[1] = test system: primary cultured cortical neurons; test: Measurement of uptake of BrU (transcription) in AMA-treated cortical neurons; format: cell-based, rat; details: three different concentrations of AMA
[2] = test system: primary cultured cerebellar neurons; test: Measurement of uptake of BrU (transcription) in AMA-treated cerebellar neurons; format: cell-based, rat; details: three different concentrations of AMA
Method: (§1) First, solutions containing three different concentrations of AMA were added to culture media of Hela cells, primary cultured cortical neurons of rat embryo (E15), and primary cultured cerebellar neurons of rat. […] The AMA-induced cellular death was significant particularly in the primary cultured neurons and their half-life period was five days or more—the primary cultured neurons died obviously earlier than those that had not been treated with AMA. […] In this AMA-induced cellular death, neuronal cell death progressed very slowly as compared with low-potassium-induced apoptosis of cerebellar neurons.
A cerebral cortical tissue segregated from E17 Wistar rat embryo and a cerebellar tissue segregated from P7 Wistar rat novelborn were shredded with a razor, and treated with a phosphate buffered saline (hereinafter referred to as “PBS”; pH 7.5) containing 0.25% trypsin (Gibco) at 37° C. for 20 min, with gentle shaking every 5 min. Subsequently, the reaction was quenched by replacing the PBS with DMEM containing a 50% fetal bovine serum (hereinafter referred to as “FBS”), and DNaseI (Boehringer Mannheim) was added to a final concentration of 100 μg/ml. The tissues were segregated gently by pipetting with a blue tip. […]

primary cultured neurons = test: AMA-induced cellular death of primary cultured neurons (Trypan Blue cellular death assay); format: cell-based, rat
Method: as §1
A cerebral cortical tissue segregated from E17 Wistar rat embryo and a cerebellar tissue segregated from P7 Wistar rat novelborn were shredded with a razor, and treated with a phosphate buffered saline (hereinafter referred to as “PBS”; pH 7.5) containing 0.25% trypsin (Gibco) at 37° C. for 20 min, with gentle shaking every 5 min. Subsequently, the reaction was quenched by replacing the PBS with DMEM containing a 50% fetal bovine serum (hereinafter referred to as “FBS”), and DNaseI (Boehringer Mannheim) was added to a final concentration of 100 μg/ml. The tissues were segregated gently by pipetting with a blue tip. The cells were filtrated through a nylon mesh (FALCON, pore size: […]) by centrifuge for precipatation and resuspended in DMEM additionally containing 20 mM glucose, 16 mM sodium hydrogen carbonate, 4 mM glutamine, 25 μg/ml gentamicin and 10% FBS. The suspension was added into a polylysine-coated 24-well plate (Corning) and the cells were cultured so that each well has 3×10^5 cells. After 12 hours, cytosine arabinoside was added to the culture wells to a final concentration of […] in order to prevent glial cell proliferation. […]
The cells were treated for 5 min with 0.4% Trypan Blue solution (Invitrogen). […] In these spots the numbers of blue-stained cells (dead cells) and non-stained cells (living cells) were counted to a total of at least 2,000.

Hela cells = test: AMA-induced cellular death of Hela cells; format: cell-based; details: AMA-treated Hela cells
Method: as §1
The cells were treated for 5 min with 0.4% Trypan Blue solution (Invitrogen). In each experiment, 10-20 spots were randomly selected from each of the three dishes at 100× magnification. In these spots the numbers of blue-stained cells (dead cells) and non-stained cells (living cells) were counted to a total of at least 2,000.

[3] = test system: cell line and primary neurons; test: Genome DNA analysis for DNA ladders after AMA treatment; format: cell-based; details: genome DNA analysis of the cell line and primary neurons after AMA treatment
YAP = test: Northern blotting of YAP expression after AMA; format: cell-based, rat; details: transcription stage
Method: Next, in order to clarify the molecular mechanism underlying the OP (omega process), we performed microarray analysis. Expression of genes associated with AMA-induced cellular death of cortical neurons and cerebellar neurons and expression of genes associated with low-potassium-induced apoptosis of cerebellar neuron were compared. Experiment was performed twice for each type of cellular death. This microarray analysis led to the identification of 8 genes that offered different expression levels both in apoptosis and OP, and 11 genes that offered different expression levels specifically in OP. The latter set of genes contained YAP, a transcriptional activation factor (coactivator) which is known to play a key role in p73-mediated apoptosis.
Ten micrograms of total RNA extracted from the primary cultured neurons was electrophoresed on a MOPS/formaldehyde gel. The separated RNA fragments were transferred and immobilized to Hybond-N (Pharmacia) by UV cross-linking (exposure dose=120,000 μJ/cm^2). The full-length cDNA with the 61nt insert was cleaved from pBSins61 and purified by passing it through a gel and labeled with [a32P]dCTP (Amersham) using Random Primer DNA-labeling kit (Takara). The probes labeled with 32P were reacted with a nylon film at 60° C. and allowed to stand overnight for permeation. […]

CC[C@H](C)[C@@H]1NC(=O)CNC(=O)[C@@H]2Cc3c([nH]c4cc(O)ccc34)[S+]([O-])C[C@@H](NC(=O)CNC1=O)C(=O)N[C@@H](CC(N)=O)C(=O)N1C[C@H](O)C[C@H]1C(=O)N[C@@H]([C@@H](C)[C@@H](O)CO)C(=O)N2 (stereo in doubt) [AMA, α-amanitin]
transcription (uptake of BrU) [1]: suppressed transcription
transcription (uptake of BrU) [2]: suppressed transcription
concentration dependence of cellular death rate (primary cultured neurons; AMA 10 μg/ml to 250 μg/ml): dependent on AMA concentration
cellular death (proportion of living cells) (primary cultured neurons; AMA-treated neurons): induces progressive cellular death
time before half the population of the neural cells died (half-life period) (primary cultured neurons; neuronal cells treated with α-amanitin): ≥ 120 h
cellular death (proportion of living cells) (Hela cells): induces progressive cellular death
DNA ladders [3]: no DNA ladders were observed
YAP expression (YAP): down-regulated YAP expression
